US6437128B1, “Cribrostatins 3-5” (Arizona Board of Regents, priority 2001, dated 2002)
Converted amounts (≈) assume the structure as drawn. “And” between values parts separate entries of the source, which are not always exact repeats. Identical values can stand only once.

Legend:
[1] = test system: Candida albicans (ATCC 90028); assay: Antimicrobial disk diffusion; format: cell-based
[2] = test system: Penicillin-resistant N. gonorrhoeae (clinical isolate); assay: Antimicrobial disk diffusion; format: cell-based; settings: listed as 5
[3] = test system: Invasive S. pneumoniae (clinical isolate); assay: Antimicrobial disk diffusion; format: cell-based
NCI-H522 = assay: NCI 60-cell screen; format: cell-based, human; settings: Homo sapiens, averaged, quadruplicate, upper limit 10^−5 M, read-out: negative log10 GI50 (converted)
OVCAR-3 = assay: NCI 60-cell screen; format: cell-based, human; settings: Homo sapiens, averaged, quadruplicate, upper limit 10^−5 M, read-out: negative log10 GI50 (converted)
SR = assay: NCI 60-cell screen; format: cell-based, human; settings: Homo sapiens, averaged, quadruplicate, upper limit 10^−5 M, read-out: negative log10 GI50 (converted)
KM 12 = assay: NCI 60-cell screen; format: cell-based, human; settings: Homo sapiens, KM12, averaged, quadruplicate, upper limit 10^−5 M, read-out: negative log10 GI50 (converted)
HOP-62 = assay: NCI 60-cell screen; format: cell-based, human; settings: Homo sapiens, averaged, quadruplicate, upper limit 10^−5 M, read-out: negative log10 GI50 (converted)
CCRF-CEM = assay: NCI 60-cell screen; format: cell-based, human; settings: Homo sapiens, averaged, quadruplicate, upper limit 10^−5 M, read-out: negative log10 GI50 (converted)
786-O = assay: NCI 60-cell screen; format: cell-based, human; settings: Homo sapiens, 786-0, averaged, quadruplicate, upper limit 10^−5 M, read-out: negative log10 GI50 (converted)
COLO 205 = assay: NCI 60-cell screen; format: cell-based, human; settings: Homo sapiens, averaged, quadruplicate, upper limit 10^−5 M, read-out: negative log10 GI50 (converted)
MDA-N = assay: NCI 60-cell screen; format: cell-based, human; settings: Homo sapiens, averaged, quadruplicate, upper limit 10^−5 M, read-out: negative log10 GI50 (converted)
IGROV1 = assay: NCI 60-cell screen; format: cell-based, human; settings: Homo sapiens, IGROV-1, averaged, quadruplicate, upper limit 10^−5 M, read-out: negative log10 GI50 (converted)
SF-539 = assay: NCI 60-cell screen; format: cell-based, human; settings: Homo sapiens, averaged, quadruplicate, upper limit 10^−5 M, read-out: negative log10 GI50 (converted)
OVCAR4 = assay: NCI 60-cell screen; format: cell-based, human; settings: Homo sapiens, OVCAR-4, averaged, quadruplicate, upper limit 10^−5 M, read-out: negative log10 GI50 (converted)
[4] = test system: P388 lymphocytic leukemia; assay: in vitro murine P388 lymphocytic leukemia (PS) cell growth inhibition; format: cell-based
Text: The fractions obtained from the 1988-89 recollection of Cribrochalina so. (See: Pettit, G. R.; Collins, J. C.; Herald, D. L.; Doubek, D. L.; Boyd, M. R.; Schmidt, J. M.; Hooper, J. N. A.; Tackett, L. P. Can. J. Cheim. 1992, 70, 1170-1175) beginning with the 195 g dichloromethane partition fraction were re-examined guided by bioassay results using the murine P388 lymphocytic leukemia.
(§1) Individual cell line response values are provided in the Experimental.

OVCAR-8 = assay: NCI 60-cell screen; format: cell-based, human; settings: Homo sapiens, averaged, quadruplicate, upper limit 10^−5 M, read-out: negative log10 GI50 (converted)
A549/ATCC = assay: NCI 60-cell screen; format: cell-based, human; settings: Homo sapiens, averaged, quadruplicate, upper limit 10^−5 M, read-out: negative log10 GI50 (converted)
[5] = test system: Escherichia coli (ATCC 25922); assay: Antimicrobial disk diffusion; format: cell-based
ACHN = assay: NCI 60-cell screen; format: cell-based, human; settings: Homo sapiens, averaged, quadruplicate, upper limit 10^−5 M, read-out: negative log10 GI50 (converted)
T-47D = assay: NCI 60-cell screen; format: cell-based, human; settings: Homo sapiens, T47D, averaged, quadruplicate, upper limit 10^−5 M, read-out: negative log10 GI50 (converted)
[6] = test system: Staphylococcus aureus (ATCC 29213); assay: Antimicrobial disk diffusion; format: cell-based
MDA-MB-231/ATCC = assay: NCI 60-cell screen; format: cell-based, human; settings: Homo sapiens, averaged, quadruplicate, upper limit 10^−5 M, read-out: negative log10 GI50 (converted)
PC-3 = assay: NCI 60-cell screen; format: cell-based, human; settings: Homo sapiens, averaged, quadruplicate, upper limit 10^−5 M, read-out: negative log10 GI50 (converted)
NCI-H226 = assay: NCI 60-cell screen; format: cell-based, human; settings: Homo sapiens, averaged, quadruplicate, upper limit 10^−5 M, read-out: negative log10 GI50 (converted)
SW-620 = assay: NCI 60-cell screen; format: cell-based, human; settings: Homo sapiens, averaged, quadruplicate, upper limit 10^−5 M, read-out: negative log10 GI50 (converted)
[7] = test system: Cryptococcus neoformans (ATCC 90112); assay: Antimicrobial disk diffusion; format: cell-based
MCF7 = assay: NCI 60-cell screen; format: cell-based, human; settings: Homo sapiens, averaged, quadruplicate, upper limit 10^−5 M, read-out: negative log10 GI50 (converted)
HL-60 (TB) = assay: NCI 60-cell screen; format: cell-based, human; settings: Homo sapiens, averaged, quadruplicate, upper limit 10^−5 M, read-out: negative log10 GI50 (converted)
MOLT-4 = assay: NCI 60-cell screen; format: cell-based, human; settings: Homo sapiens, averaged, quadruplicate, upper limit 10^−5 M, read-out: negative log10 GI50 (converted)
[8] = test system: Micrococcus luteus (Presque Isle 456); assay: Antimicrobial disk diffusion; format: cell-based; settings: listed as 5
FADU (Pharynx-sq) = assay: ASU-CRI minipanel of human cancer cell lines; format: cell-based
Text: as §1

SW-1736 (Thyroid ca) = assay: ASU-CRI minipanel of human cancer cell lines; format: cell-based; settings: Thyroid ca SW-1736
Text: as §1

SK-N-SH (Neuroblast) = assay: ASU-CRI minipanel of human cancer cell lines; format: cell-based
Text: as §1

DU-145 (Prostate) = assay: ASU-CRI minipanel of human cancer cell lines; format: cell-based; settings: Homo sapiens; Prostate DU-145; read-out: GI50
Text: as §1

BXPC-3 (Pancreas-a) = assay: ASU-CRI minipanel of human cancer cell lines; format: cell-based; settings: Homo sapiens; Pancreas-a BXPC-3; read-out: GI50
Text: as §1

NCI-H460 (Lung-NSC) = assay: ASU-CRI minipanel of human cancer cell lines; format: cell-based; settings: Homo sapiens, read-out: GI50
Text: as §1

SF-295 (CNS) = assay: ASU-CRI minipanel of human cancer cell lines; format: cell-based; settings: Homo sapiens; CNS SF-295; read-out: GI50
Text: as §1

KM20L2 (Colon) = assay: ASU-CRI minipanel of human cancer cell lines; format: cell-based; settings: Homo sapiens, KM-20L2, read-out: GI50
Text: as §1

OVCAR-3 (Ovarian) = assay: ASU-CRI minipanel of human cancer cell lines; format: cell-based; settings: Homo sapiens; Ovarian OVCAR-3; read-out: GI50
Text: as §1

SK-MEL-5 = assay: NCI 60-cell screen; format: cell-based, human; settings: Homo sapiens, averaged, quadruplicate, upper limit 10^−5 M, read-out: negative log10 GI50 (converted)

## C/C=C(/C)C(=O)OC[C@H]1C2=C(C=C3[C@H]4c5c(O)c(OC)c(C)c(O)c5C(=O)[C@@H](C(=O)N31)N4C)C(=O)C(C)=C(OC)C2=O [Cribrostatin 4, cribrostatin 4]
[1]
  Minimum inhibitory concentration: * (No inhibition at 100 μg/disk)
[2]
  Minimum inhibitory concentration: 1.56-3.12 μg/disk
[3]
  Minimum inhibitory concentration: * (No inhibition at 100 μg/disk)
NCI-H522
  GI50: 4.17 µM
OVCAR-3
  GI50: 3.63 µM
SR
  GI50: 3.8 µM
KM 12
  GI50: 9.12 µM
HOP-62
  GI50: 7.59 µM
CCRF-CEM
  GI50: 1.7 µM
786-O
  GI50: 6.17 µM
COLO 205
  GI50: 8.13 µM
MDA-N
  GI50: 2.19 µM
IGROV1
  GI50: 8.51 µM
SF-539
  GI50: 5.75 µM
OVCAR4
  GI50: 1.82 µM
[4]; Mouse Leukemia P388, read-out: GI50
  GI50: 24.6 µg/mL (≈ 42.5 µM)
[4]; in vitro P388 lymphocytic leukemia, listed as cribrostatin 4
  PS ED50 (P388 ED50): 25 µg/mL and 24 µg/mL
OVCAR-8
  GI50: 4.27 µM
A549/ATCC
  GI50: 8.71 µM
[5]
  Minimum inhibitory concentration: * (No inhibition at 100 μg/disk)
ACHN
  GI50: 7.94 µM
T-47D
  GI50: 2.09 µM
[6]
  Minimum inhibitory concentration: * (No inhibition at 100 μg/disk)
MDA-MB-231/ATCC
  GI50: 2.69 µM
PC-3
  GI50: 9.12 µM
NCI-H226
  GI50: 7.94 µM
SW-620
  GI50: 6.92 µM
[7]
  Minimum inhibitory concentration: * (No inhibition at 100 μg/disk)
MCF7
  GI50: 8.13 µM
HL-60 (TB)
  GI50: 5.37 µM
MOLT-4
  GI50: 1.91 µM
[8]
  Minimum inhibitory concentration: * (No inhibition at 100 μg/disk)
FADU (Pharynx-sq)
  GI50: 0.26 µg/mL (≈ 0.449 µM)
SW-1736 (Thyroid ca)
  GI50: > 10 µg/mL
SK-N-SH (Neuroblast)
  GI50: 3.6 µg/mL (≈ 6.22 µM)
DU-145 (Prostate)
  GI50: > 10 µg/mL
BXPC-3 (Pancreas-a)
  GI50: 5.6 µg/mL (≈ 9.68 µM)
NCI-H460 (Lung-NSC)
  GI50: > 10 µg/mL
SF-295 (CNS)
  GI50: > 10 µg/mL
KM20L2 (Colon)
  GI50: > 10 µg/mL
OVCAR-3 (Ovarian)
  GI50: 2.2 µg/mL (≈ 3.8 µM)
SK-MEL-5
  GI50: 8.13 µM
